# Experimental data reported in US8735423B2, “Bicyclic compounds as α4β2 nicotinic acetylcholine receptor ligands” (priority 2009, dated 2014).
# Structures can show the parent of a compound that is named as a salt. Where two headings read alike, the source gives them in different places.
# Columns and labels:
# [1] = molecular target: Human or Rat Nicotinic Acetylcholine α4β2 receptor (UniProt P09483+P12390); experiment: Binding assay for Human or Rat Nicotinic Acetylcholine α4β2 receptor ([3H] Cytisine); conditions: [3H] Cytisine 2.5 nM, rat brain frontal cortex or recombinant human cDNA expressed in CHO cells
# Description: Binding assay for Human or Rat Nicotinic Acetylcholine α4β2 receptor
# Compounds can be evaluated according to the following procedures.
# Materials and Methods: • Receptor source: Rat brain frontal cortex or recombinant human cDNA expressed in CHO cells • Radioligand: [^3H] Cytisine 15-40 Ci/mmol • Final ligand concentration—[2.5 nM] • Non-specific determinant: Epibatidine-[0.1 μM] • Reference compound: Epibatidine • Positive control: Epibatidine Incubation Conditions:
# Increasing concentrations of test compounds or standard were incubated with membrane receptors and radioligand in 120 mM NaCl, 2.5 mM KCl, 1 mM CaCl2, 1 mM MgCl2 and 50 mM TRIS-HCl (pH 7.4) for 60 minutes at room temperature. The reaction was terminated by rapid vacuum filtration onto the glass fiber filters. Radioactivity trapped onto the filters was determined and compared to the control values in order to ascertain any interactions of the test compound(s) with either cloned human or rat receptor binding site.
# Literature Reference: Bunnelle W. H., Daanen J. F., Ryther K. B., Schrimpf M. R., Dart M. J., Gelain A., Meyer M. D., Frost J. M., Anderson D. J., Buckley M., Curzon P., Cao Y-J., Puttfarcken P., Searle X., Ji J., Putman C. B., Surowy C., Toma L. and Barlocco D. Structure-Activity Studies and Analgesic Efficacy of N-(3-Pyridinyl)-Bridged Bicyclic Diamines, Exceptionally Potent Agonists at Nicotinic Acetylcholine Receptors. J. Med. Chem. 2007, 50, […].
# Male Wister rats = experiment: Reversal of Formalin Induced Nociception; type: in vivo; conditions: rat, p.o., formalin 5% v/v subplantar
# Description: Reversal of Formalin Induced Nociception
# The anti-nociceptive properties of compounds of this invention were evaluated using a model of pain: the Formalin Induced Nociception model. Male Wister rats (230-280 grams) obtained from N. I. N. (National Institute of Nutrition, Hyderabad, India) was used as experimental animals.
# Rats were habituated for 20 minutes in the arena before the experiment was started. Duration of licks, bites and flinches were noted from 0-10 minutes and 20-35 minutes after administration of formalin, subplantar into the right hind paw at concentrations of 5% v/v. 50 μL of water for injection was injected into the right hind paw of the rats of the sham group. Compounds of this invention were administered orally prior to formalin administration.
# [2] = molecular target: T1, recombinant human α4β2 nicotinic acetylcholine receptor (Homo sapiens, UniProt P17787+P43681); experiment: Determination of IC50 and Kb values, aequorin luminescence assay in CHO cells; type: cell-based
# T1 construct: expressed in transfected cells
# T1 sequence (P43681 29-627): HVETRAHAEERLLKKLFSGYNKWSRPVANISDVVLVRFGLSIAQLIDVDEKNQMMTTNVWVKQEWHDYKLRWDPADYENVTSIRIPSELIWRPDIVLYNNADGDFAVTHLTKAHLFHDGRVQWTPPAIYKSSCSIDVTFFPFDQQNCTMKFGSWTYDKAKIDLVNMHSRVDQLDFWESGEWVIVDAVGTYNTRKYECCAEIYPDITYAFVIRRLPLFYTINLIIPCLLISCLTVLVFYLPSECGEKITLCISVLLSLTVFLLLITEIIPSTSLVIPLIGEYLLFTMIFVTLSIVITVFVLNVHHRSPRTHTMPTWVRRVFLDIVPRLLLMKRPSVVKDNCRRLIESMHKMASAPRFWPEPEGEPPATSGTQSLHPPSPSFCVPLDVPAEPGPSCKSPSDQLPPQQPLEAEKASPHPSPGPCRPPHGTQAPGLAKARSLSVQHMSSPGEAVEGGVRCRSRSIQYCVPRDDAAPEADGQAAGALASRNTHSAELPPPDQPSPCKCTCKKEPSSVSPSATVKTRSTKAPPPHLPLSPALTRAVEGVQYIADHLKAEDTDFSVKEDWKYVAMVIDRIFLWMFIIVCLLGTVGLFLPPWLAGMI
# T1 sequence (P17787 26-502): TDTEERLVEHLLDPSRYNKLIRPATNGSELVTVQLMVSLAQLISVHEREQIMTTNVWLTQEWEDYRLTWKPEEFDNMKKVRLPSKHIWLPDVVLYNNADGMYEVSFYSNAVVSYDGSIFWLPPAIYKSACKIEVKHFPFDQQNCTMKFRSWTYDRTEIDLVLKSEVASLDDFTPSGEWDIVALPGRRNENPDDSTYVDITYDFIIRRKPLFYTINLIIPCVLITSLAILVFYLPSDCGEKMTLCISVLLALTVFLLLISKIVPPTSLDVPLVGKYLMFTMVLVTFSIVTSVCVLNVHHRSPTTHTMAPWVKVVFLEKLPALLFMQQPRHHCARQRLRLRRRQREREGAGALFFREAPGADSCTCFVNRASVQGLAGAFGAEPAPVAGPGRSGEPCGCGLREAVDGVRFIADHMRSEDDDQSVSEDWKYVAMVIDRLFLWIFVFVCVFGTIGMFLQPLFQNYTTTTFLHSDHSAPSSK
# Description: Determination of IC50 and Kb Values for Nicotinic Acetylcholine α4β2 Receptor Ligands
# A stable CHO cell line expressing recombinant human α4β2 nicotinic acetylcholine receptor transiently expressing aequorin protein was used for cell-based assay. The assay offers a non-radioactive based approach to determine binding of a compound to ligand gated ion channels. In this specific assay, the level of intracellular calcium which is modulated by activation or inhibition of the channel is measured. Both the channel and aequorin genes are expressed at high level under the control of powerful CMV promotor.
# The above cells were grown in 96 well clear bottom white plates in Hams F12 medium containing 10% fetal bovine serum (FBS). Prior to the addition of compounds and/or agonist, cells were serum starved for six hours. Coelentarazine (a prosthetic group for aequorin protein) was added in the medium containing 0.1% dialyzed serum and incubated overnight at 27° C. Cells were washed with assay buffer and increasing concentration of the test compound or standard were added to the plate for antagonist mode. A fixed concentration of the agonist (eipbatidine) was injected into the plate and luminescence was measured for 10 seconds. For evaluation of the compound in agonist mode, increasing concentration of the standard or test compound was injected and the luminescence was measured. Luminescence units were plotted against the compound concentrations using Graphpad software. IC50 values of the compounds were defined as the concentration required in reducing the luminescent units by 50%. The Kb values were calculated by feeding the concentration of the agonist used in the assay and its EC50 value in the same software.
# Literature References: Karadsheh M. S., Shah M. S., Tang X., Macdonald R. L. and Stitzel J. A. Functional characterization of mouse α4β2 nicotinic acetylcholine receptors stably expressed in HEK293T cells. J. Neurochem. 2004, 91, 1138-1150.
# [3] = Rodent Pharmacokinetic Study; conditions: Wistar, in vivo, Wister rat male; for AUC(0-t) / Cmax / Tmax / half-life: 5 mg/kg; for bioavailability: P.O 5 mg/kg vs I.V 5 mg/kg
# Description: Rodent Pharmacokinetic Study
# Male wistar rats (230-280 grams) obtained from NIN (National Institute of Nutrition, Hyderabad, India) were used as an experimental animal. Three to five animals were housed in each cage. Animals were kept fasted over night and maintained on a 12 hours light/dark cycle. […]
# At each time point blood was collected by jugular vein. Plasma was stored frozen at −20° C. until analysis. The concentrations of the NCE compound in plasma were determined using LC-MS/MS method. Schedule time points: Pre dose 0.25, 0.5, 1, 1.5, 2, 3, 4, 6, 8, 10, 12 and 24 hours after dosing (n=3). The NCE compounds were quantified in plasma by validated LC-MS/MS method using solid phase extraction technique. NCE compounds were quantified in the calibration range of 1-2000 ng/mL in plasma. Study samples were analyzed using calibration samples in the batch and quality control samples spread across the batch. Pharmacokinetic parameters Cmax, Tmax, AUCs, T112 and Bioavailability were calculated by non-compartmental model using software WinNonlin version 5.0.1.
# [4] = Rodent Brain Penetration Study; conditions: in vivo; Wistar rat male, P.O, 5 mg/kg; read-out: Steady State Brain Penetration (Cb/Cp)
# Description: Rodent Brain Penetration Study
# Male Wistar rats (230-280 grams) obtained from NIN (National Institute of Nutrition, Hyderabad, India) was used as an experimental animal. Three animals were housed in each cage. Animals were given water and food ad libitum throughout the experiment, and maintained on a 12 hours light/dark cycle.
# NCE compound was dissolved in water and administered orally. At Tmax (0.5, 1.0 and 2.0) animals were sacrificed to collect the plasma and brain tissue and was homogenized. Plasma and Brain was stored frozen at −20° C. until analysis. The concentrations of the NCE compound in plasma and Brain were determined using LC-MS/MS method.
# The NCE compounds were quantified in plasma and brain homogenate by validated LC-MS/MS method using solid phase extraction technique. NCE compounds were quantified in the calibration range of 1-500 ng/mL in plasma and brain homogenate. Study samples were analyzed using calibration samples in the batch and quality control samples spread across the batch. Extents of brain-blood ratio were calculated (Cb/Cp).
# [5] = antagonist mode, fixed concentration of agonist epibatidine, CHO cells, luminescence, read-out: Kb
smiles,measurement,setting,value
"Cl.Cl.Fc1ccc(OCC2CC3CC3N2)cn1 (centres unmarked) [Example 6, 3-(2-Fluoropyridin-5-yloxymethyl)-2-azabicyclo[3.1.0]hexane dihydrochloride]",Ki,[1]; read-out: Ki,3.9 nM
same,Dose (reversal of formalin induced nociception),Male Wister rats,"≦30 mg/kg, p.o."
"Clc1cncc(OCC2CCC3CC3N2)c1 (centres unmarked) [Example 20, 3-(5-Chloropyridin-3-yloxymethyl)-2-azabicyclo[4.1.0]heptane hydrochloride]",Ki,[1]; read-out: Ki,216 nM
"Cc1ccc(OCC2CC3CC3N2)cn1 (centres unmarked) [Example 18, 3-(2-Methylpyridin-5-yloxymethyl)-2-azabicyclo[3.1.0]hexane]",Ki,[1],26.1 nM
same,Kb,[2]; [5],22 nM
"Fc1ncccc1OCC1CC2CC2N1 (centres unmarked) [Example 9, 3-(2-Fluoropyridin-3-yloxymethyl)-2-azabicyclo[3.1.0]hexane tartrate]",Ki,[1]; read-out: Ki,17.4 nM
"CN1C(COc2ccc(F)nc2)CC2CC21 (centres unmarked) [Example 15, 3-(2-Fluoropyridin-5-yloxymethyl)-2-methyl-2-azabicyclo[3.1.0]hexane]",Ki,[1]; read-out: Ki,1.1 nM
"CN1C(COc2cncc(Br)c2)CC2CC21 (centres unmarked) [Example 17, 3-(5-Bromopyridin-3-yloxymethyl)-2-methyl-2-azabicyclo[3.1.0]hexane dihydrochloride]",Ki,[1]; read-out: Ki,4.2 nM
"Cc1ccc(OCC2CC3CC3N2C)cn1 (centres unmarked) [Example 13, 2-Methyl-3-(2-methylpyridin-5-yloxymethyl)-2-azabicyclo[3.1.0]hexane]",Ki,[1],0.3 nM
same,Kb,[2]; [5],5 nM
"Cc1ncccc1OCC1CC2CC2N1C (centres unmarked) [Example 12, 2-Methyl-3-(2-methylpyridin-3-yloxymethyl)-2-azabicyclo[3.1.0]hexane]",Ki,[1]; read-out: Ki,231 nM
"CN1C(COc2ccc(Cl)nc2)CC2CC21 (centres unmarked) [Example 14, 3-(2-Chloropyridin-5-yloxymethyl)-2-methyl-2-azabicyclo[3.1.0]hexane]",Ki,[1]; read-out: Ki,3.4 nM
"CN1C(COc2cccnc2F)CC2CC21 (centres unmarked) [Example 10, 3-(2-Fluoropyridin-3-yloxymethyl)-2-methyl-2-azabicyclo[3.1.0]hexane tartrate]",Ki,[1]; read-out: Ki,31.9 nM
"CN1C(COc2cncc(Cl)c2)CC2CC21 (centres unmarked) [Example 16, 3-(5-Chloropyridin-3-yloxymethyl)-2-methyl-2-azabicyclo[3.1.0]hexane]",Ki,[1]; read-out: Ki,0.37 nM
same,Kb,[2],0.4 nM
"Cl.Cl.Clc1ncccc1OCC1CC2CC2N1 (centres unmarked) [Example 4, 3-(2-Chloropyridin-3-yloxymethyl)-2-azabicyclo[3.1.0]hexane dihydrochloride]",Ki,[1]; read-out: Ki,17.5 nM
same,AUC(0-t),"[3]; iv, I.V",4160 ± 878 ng·h/mL
same,Cmax,"[3]; iv, I.V",2600 ± 42 ng/mL
same,Tmax,"[3]; iv, I.V",4.8 min
same,half-life,"[3]; iv, I.V",93 ± 15 min
same,bioavailability,[3]; po,54 ± 23%
same,AUC(0-t),"[3]; po, P.O",2160 ± 658 ng·h/mL
same,Cmax,"[3]; po, P.O",921 ± 268 ng/mL
same,Tmax,"[3]; po, P.O",15 min
same,half-life,"[3]; po, P.O",129 ± 30.6 min
same,Kp,[4],3.6 ± 0.99
"Cc1ncccc1OCC1CC2CC2N1 (centres unmarked) [Example 3, 3-(2-Methylpyridin-3-yl-oxymethyl)-2-azabicyclo[3.1.0]hexane dihydrochloride]",Ki,[1]; read-out: Ki,1000 nM
"CN1C(COc2cccnc2Cl)CC2CC21 (centres unmarked) [Example 11, 3-(2-Chloropyridin-3-yloxymethyl)-2-methyl-2-azabicyclo[3.1.0]hexane]",Ki,[1]; read-out: Ki,28.1 nM
same,Kb,[2],13.5 nM
"CN1C(COc2cccnc2)CC2CC21 (centres unmarked) [Example 2, 2-Methyl-3-(pyridin-3-yloxymethyl)-2-azabicyclo[3.1.0]hexane]",Ki,[1]; read-out: Ki,5.5 nM
same,Kb,[2],0.4 nM
"Brc1cncc(OCC2CC3CC3N2)c1 (centres unmarked) [Example 8, 3-(5-Bromopyridin-3-yloxymethyl)-2-azabicyclo[3.1.0]hexane tartrate]",Ki,[1]; read-out: Ki,6.4 nM
"Cl.Cl.Clc1ccc(OCC2CC3CC3N2)cn1 (centres unmarked) [Example 5, 3-(2-Chloropyridin-5-yloxymethyl)-2-azabicyclo[3.1.0]hexane dihydrochloride]",Ki,[1],1.5 nM
same,AUC(0-t),"[3]; iv, I.V",5380 ± 821 ng·h/mL
same,Cmax,"[3]; iv, I.V",2720 ± 588 ng/mL
same,Tmax,"[3]; iv, I.V",4.8 min
same,half-life,"[3]; iv, I.V",151 ± 25.8 min
same,bioavailability,[3]; po,66 ± 12%
same,AUC(0-t),"[3]; po, P.O",3510 ± 657 ng·h/mL
same,Cmax,"[3]; po, P.O",1910 ± 675 ng/mL
same,Tmax,"[3]; po, P.O",15 min
same,half-life,"[3]; po, P.O",200 ± 36 min
same,Kp,[4],2.34 ± 0.25
"c1cncc(OCC2CCC3CC3N2)c1 (centres unmarked) [Example 19, 3-(Pyridin-3-yloxymethyl)-2-azabicyclo[4.1.0]heptane hydrochloride]",Ki,[1]; read-out: Ki,8.2 nM
